# Results as given in US20150017667A1, “MEANS AND METHODS FOR ASSESSING LIVER DISORDERS” (BASF SE, priority 2012, published 2015).
# Where two headings read alike, the source gives them in different places. Marks after values point to notes of the source that are not given here.
# Columns and labels:
# female rats [1] = settings: rat, in vivo
# Procedure: (§1) A group of each 5 male and female rats was dosed once daily with the indicated compounds (see Table 5, below for compounds, applied doses and administeration details) over 28 days.
# (§2) Each dose group in the studies consisted of five rats per sex. Additional groups of each 5 male and female animals served as controls. Before starting the treatment period, animals, which were 62-64 days old when supplied, were acclimatized to the housing and environmental conditions for 7 days. All animals of the animal population were kept under the same constant temperature (20-24±3° C.) and the same constant humidity (30-70%). The animals of the animal population were fed ad libitum. The food to be used was essentially free of chemical or microbial contaminants. Drinking water was also offered ad libitum. Accordingly, the water was free of chemical and microbial contaminants as laid down in the European Drinking Water Directive 98/83/EG. The illumination period was 12 hours light followed by 12 hours darkness (12 hours light, from 6:00 to 18:00, and 12 hours darkness, from 18:00 to 6:00).
# (§3) In the morning of day 7, 14, and 28, blood was taken from the retroorbital venous plexus from fasted anaesthetized animals. From each animal, 1 ml of blood was collected with EDTA as anticoagulant. The samples were centrifuged for generation of plasma. All plasma samples were covered with a N2 atmosphere and then stored at −80° C. until analysis.
# (§4) For mass spectrometry-based metabolite profiling analyses plasma samples were extracted and a polar and a non-polar (lipid) fraction was obtained. For GC-MS analysis, the non-polar fraction was treated with methanol under acidic conditions to yield the fatty acid methyl esters. Both fractions were further derivatised with O-methyl-hydroxyamine hydrochloride and pyridine to convert Oxogroups to O-methyloximes and subsequently with a silylating agent before analysis. In LC-MS analysis, both fractions were reconstituted in appropriate solvent mixtures. HPLC was performed by gradient elution on reversed phase separation columns.
# (§5) Following comprehensive analytical validation steps, the data for each analyte were normalized against data from pool samples. These samples were run in parallel through the whole process to account for process variability. The significance of treatment group values specific for sex, treatment duration and metabolite was determined by comparing means of the treated groups to the means of the respective untreated control groups using WELCH-test and quantified with treatment ratios versus control and p-values.
# female rats [2] = assay: 28-day repeated dose oral toxicity study (OECD 407) with GC-MS/LC-MS plasma metabolite profiling, female rats
# Procedure: as §1, §2, §3, §4, §5
# male rats = assay: 28-day repeated dose oral toxicity study (OECD 407) with GC-MS/LC-MS plasma metabolite profiling, male rats; type: in vivo, rat
# From the text: Drinking water was also offered ad libitum.
# The samples were centrifuged for generation of plasma.
compound,measurement,setting,value
CC/C(=C(\c1ccccc1)c1ccc(OCCN(C)C)cc1)c1ccccc1 [Tamoxifen],"Threonine, ratio versus control",female rats [1],1.05*
same,"3-Methoxytyrosine, ratio versus control",female rats [2]; day 7,1.26*
same,"16-Methylheptadecanoic acid, ratio versus control",female rats [2]; day 7,0.73*
same,"17-Methyloctadecanoic acid, ratio versus control",female rats [2]; day 7,0.80*
same,"Ketoleucine, ratio versus control",female rats [2]; day 7,0.92
same,"Normetanephrine, ratio versus control",female rats [2]; day 7,0.84
same,"Palmitoleic acid (C16:cis[9]1), ratio versus control",female rats [2]; day 7,0.91
same,"Phosphatidylcholine (C18:0,C20:3), ratio versus control",female rats [2]; day 7,0.81*
same,"TAG (C18:1,C18:2,C18:3), ratio versus control",female rats [2]; day 7,2.78*
same,"TAG (C42:9) (DAG-Fragment) (putative), ratio versus control",female rats [2]; day 7,0.56*
same,"Threonine, ratio versus control",female rats [2]; day 7,1.17*
same,"Uracil, ratio versus control",female rats [2]; day 7,0.86*
same,"Xylitol, ratio versus control",female rats [2]; day 7,1.29*
same,"TAG (C18:2,C18:2), ratio versus control",female rats [2]; day 7 (Table 7a),3.21*
same,"Lysophosphatidylcholine (C20:4), ratio versus control","female rats [2]; day 7 (first line of this name, r15)",0.92*
same,"Lysophosphatidylcholine (C20:4), ratio versus control","female rats [2]; day 7 (second line of this name, r16)",0.88*
same,"3-Methoxytyrosine, ratio versus control",female rats [2]; day 14,1.61*
same,"16-Methylheptadecanoic acid, ratio versus control",female rats [2]; day 14,0.97
same,"17-Methyloctadecanoic acid, ratio versus control",female rats [2]; day 14,0.92
same,"Ketoleucine, ratio versus control",female rats [2]; day 14,0.71*
same,"Normetanephrine, ratio versus control",female rats [2]; day 14,1.15
same,"Palmitoleic acid (C16:cis[9]1), ratio versus control",female rats [2]; day 14,0.69*
same,"Phosphatidylcholine (C18:0,C20:3), ratio versus control",female rats [2]; day 14,0.89*
same,"TAG (C18:1,C18:2,C18:3), ratio versus control",female rats [2]; day 14,2.96*
same,"TAG (C42:9) (DAG-Fragment) (putative), ratio versus control",female rats [2]; day 14,0.65*
same,"Uracil, ratio versus control",female rats [2]; day 14,0.86*
same,"Xylitol, ratio versus control",female rats [2]; day 14,1.63*
same,"TAG (C18:2,C18:2), ratio versus control",female rats [2]; day 14 (Table 7a),2.84*
same,"Lysophosphatidylcholine (C20:4), ratio versus control","female rats [2]; day 14 (first line of this name, r15)",0.96*
same,"Lysophosphatidylcholine (C20:4), ratio versus control","female rats [2]; day 14 (second line of this name, r16)",0.84*
same,"3-Methoxytyrosine, ratio versus control",female rats [2]; day 28,1.38*
same,"16-Methylheptadecanoic acid, ratio versus control",female rats [2]; day 28,0.78*
same,"17-Methyloctadecanoic acid, ratio versus control",female rats [2]; day 28,0.89*
same,"Ketoleucine, ratio versus control",female rats [2]; day 28,0.77*
same,"Normetanephrine, ratio versus control",female rats [2]; day 28,0.89
same,"Palmitoleic acid (C16:cis[9]1), ratio versus control",female rats [2]; day 28,0.60*
same,"Phosphatidylcholine (C18:0,C20:3), ratio versus control",female rats [2]; day 28,0.88*
same,"TAG (C18:1,C18:2,C18:3), ratio versus control",female rats [2]; day 28,2.18*
same,"TAG (C42:9) (DAG-Fragment) (putative), ratio versus control",female rats [2]; day 28,0.81*
same,"Threonine, ratio versus control",female rats [2]; day 28,0.98
same,"Uracil, ratio versus control",female rats [2]; day 28,0.64*
same,"Xylitol, ratio versus control",female rats [2]; day 28,1.71*
same,"TAG (C18:2,C18:2), ratio versus control",female rats [2]; day 28 (Table 7a),2.20*
same,"Lysophosphatidylcholine (C20:4), ratio versus control","female rats [2]; day 28 (first line of this name, r15)",0.91*
same,"Lysophosphatidylcholine (C20:4), ratio versus control","female rats [2]; day 28 (second line of this name, r16)",0.81*
same,16-Methylheptadecanoic acid change in plasma,male rats; m7,0.58*
same,17-Methyloctadecanoic acid change in plasma,male rats; m7,0.61*
same,Campesterol change in plasma,male rats; m7,0.59*
same,Lysophosphatidylcholine (C18:1) change in plasma,male rats; m7,0.78*
same,Myristic acid (C14:0) change in plasma,male rats; m7,0.65*
same,PC No 04 (putative) change in plasma,male rats; m7,0.44*
same,Palmitoleic acid (C16:cis[9]1) change in plasma,male rats; m7,0.57*
same,"Phosphatidylcholine (C16:0,C20:4) change in plasma",male rats; m7,0.87*
same,"Phosphatidylcholine (C16:1,C18:2) change in plasma",male rats; m7,0.76*
same,"Phosphatidylcholine (C18:1,C18:2) change in plasma",male rats; m7,0.79*
same,Phosphatidylcholine No 02 change in plasma,male rats; m7,0.53*
same,"Sphingomyelin (d18:1,C16:0) change in plasma",male rats; m7,0.66*
same,Tyrosine change in plasma,male rats; m7,0.77*
same,Unknown lipid (28000473) change in plasma,male rats; m7,0.31*
same,Unknown lipid (68000034) change in plasma,male rats; m7,0.74*
same,Uracil change in plasma,male rats; m7,0.86*
same,beta-Sitosterol change in plasma,male rats; m7,0.75*
same,Lysophosphatidylcholine (C20:4) change in plasma,"male rats; m7, first of two rows with this name (r24)",0.90*
same,Lysophosphatidylcholine (C20:4) change in plasma,"male rats; m7, second of two rows with this name (r25)",0.77*
same,16-Methylheptadecanoic acid change in plasma,male rats; m14,0.60*
same,17-Methyloctadecanoic acid change in plasma,male rats; m14,0.64*
same,Campesterol change in plasma,male rats; m14,0.74*
same,Lysophosphatidylcholine (C18:1) change in plasma,male rats; m14,0.84*
same,Myristic acid (C14:0) change in plasma,male rats; m14,0.60*
same,PC No 04 (putative) change in plasma,male rats; m14,0.56*
same,Palmitoleic acid (C16:cis[9]1) change in plasma,male rats; m14,0.43*
same,"Phosphatidylcholine (C16:0,C20:4) change in plasma",male rats; m14,0.96*
same,"Phosphatidylcholine (C16:1,C18:2) change in plasma",male rats; m14,0.69*
same,"Phosphatidylcholine (C18:1,C18:2) change in plasma",male rats; m14,0.83*
same,Phosphatidylcholine No 02 change in plasma,male rats; m14,0.60*
same,"Sphingomyelin (d18:1,C16:0) change in plasma",male rats; m14,0.73*
same,Tyrosine change in plasma,male rats; m14,0.85*
same,Unknown lipid (28000473) change in plasma,male rats; m14,0.46*
same,Unknown lipid (68000034) change in plasma,male rats; m14,0.59*
same,Uracil change in plasma,male rats; m14,0.75*
same,beta-Sitosterol change in plasma,male rats; m14,0.83*
same,Lysophosphatidylcholine (C20:4) change in plasma,"male rats; m14, first of two rows with this name (r24)",0.89*
same,Lysophosphatidylcholine (C20:4) change in plasma,"male rats; m14, second of two rows with this name (r25)",0.79*
same,16-Methylheptadecanoic acid change in plasma,male rats; m28,0.48*
same,17-Methyloctadecanoic acid change in plasma,male rats; m28,0.48*
same,Campesterol change in plasma,male rats; m28,0.55*
same,Lysophosphatidylcholine (C18:1) change in plasma,male rats; m28,0.81*
same,Myristic acid (C14:0) change in plasma,male rats; m28,0.61*
same,PC No 04 (putative) change in plasma,male rats; m28,0.54*
same,Palmitoleic acid (C16:cis[9]1) change in plasma,male rats; m28,0.32*
same,"Phosphatidylcholine (C16:0,C20:4) change in plasma",male rats; m28,0.97*
same,"Phosphatidylcholine (C16:1,C18:2) change in plasma",male rats; m28,0.74*
same,"Phosphatidylcholine (C18:1,C18:2) change in plasma",male rats; m28,0.99
same,Phosphatidylcholine No 02 change in plasma,male rats; m28,0.62*
same,"Sphingomyelin (d18:1,C16:0) change in plasma",male rats; m28,0.71*
same,Tyrosine change in plasma,male rats; m28,0.86
same,Unknown lipid (28000473) change in plasma,male rats; m28,0.37*
same,Unknown lipid (68000034) change in plasma,male rats; m28,0.45*
same,Uracil change in plasma,male rats; m28,0.79*
same,beta-Sitosterol change in plasma,male rats; m28,0.73*
same,Lysophosphatidylcholine (C20:4) change in plasma,"male rats; m28, first of two rows with this name (r24)",0.88*
same,Lysophosphatidylcholine (C20:4) change in plasma,"male rats; m28, second of two rows with this name (r25)",0.70*
same,"3-Methoxytyrosine, ratio versus control","male rats; plasma, day 7",1.17*
same,"Serine, ratio versus control","male rats; plasma, day 7",1.17*
same,"Xylitol, ratio versus control","male rats; plasma, day 7",1.57*
same,"Threonine, ratio versus control","male rats; plasma, day 7 (Table 7c)",0.96
same,"3-Methoxytyrosine, ratio versus control","male rats; plasma, day 14",1.31*
same,"Xylitol, ratio versus control","male rats; plasma, day 14",2.05*
same,"Threonine, ratio versus control","male rats; plasma, day 14 (Table 7c)",1.22*
same,"3-Methoxytyrosine, ratio versus control","male rats; plasma, day 28",1.39*
same,"Xylitol, ratio versus control","male rats; plasma, day 28",1.75*
same,"Threonine, ratio versus control","male rats; plasma, day 28 (Table 7c)",1.10*
